Data taken from the supplement of paper PMC10307832.

Legend:
Assay in all cases: relative viability (nuclei count vs DMSO), 5 days (fraction); higher = more cells survive
[1] = compound: C/C(=N\NC(=S)N1CCC1)/C2=CC=CC=N2
Method in brief: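 Lung cancer cell lines received five library-drug doses (not always all listed) spaced by √10, pinned on vehicle-anchored 1536-well plates after an overnight stay at 37 °C. Five days later, with no medium change, nuclei were Hoechst-stained, imaged at 4× and counted with MetaXpress. Viability is treated-well nuclei relative to vehicle-well nuclei, as a median across plates. Passing plates had control CV below 25% and at least one doubling.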

[2] = compound: C/C(=N\NC(=S)N1CCC1)/C2=CC=CC=N2 + CC(C)C[C@H](NC(=O)[C@H](Cc1ccccc1)NC(=O)c1cnccn1)B(O)O [Bortezomib] (partner 0.002 µM)
Method in brief: (§1)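 Five library-drug doses in √10 steps were combined with a fixed anchor-drug dose, or a single drug was given alone, by pin tool to lung cancer cell lines in 1536-well plates the day after seeding. Nuclei were stained and counted after 5 days. Relative viability is the nuclei count in treated wells over that in vehicle wells, taken as the median of duplicate plates.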

[3] = compound: C/C(=N\NC(=S)N1CCC1)/C2=CC=CC=N2 + CC1(C)CCC(c2ccc(Cl)cc2)=C(CN2CCN(c3ccc(C(=O)NS(=O)(=O)c4ccc(N[C@H](CCN5CCOCC5)CSc5ccccc5)c(S(=O)(=O)C(F)(F)F)c4)cc3)CC2)C1 [Navitoclax] (partner 0.5 µM)
Method in brief: as §1

[4] = compound: C/C(=N\NC(=S)N1CCC1)/C2=CC=CC=N2 + COc1cc2c(Oc3ccc(NC(=O)C4(C(=O)Nc5ccc(F)cc5)CC4)cc3F)ccnc2cc1OCCCN1CCOCC1 [Foretinib] (partner 0.25 µM)
Method in brief: as §1

[5] = compound: C/C(=N\NC(=S)N1CCC1)/C2=CC=CC=N2 + CS(=O)(=O)CCNCc1ccc(-c2ccc3ncnc(Nc4ccc(OCc5cccc(F)c5)c(Cl)c4)c3c2)o1 [Lapatinib] (partner 2 µM)
Method in brief: as §1

[6] = compound: C/C(=N\NC(=S)N1CCC1)/C2=CC=CC=N2 + CS(=O)(=O)N1CCN(Cc2cc3nc(-c4cccc5[nH]ncc45)nc(N4CCOCC4)c3s2)CC1 [Pictilisib] (partner 1 µM)
Method in brief: as §1

[7] = compound: C/C(=N\NC(=S)N1CCC1)/C2=CC=CC=N2 + C[C@@H](Oc1cc(-c2cnn(C3CCNCC3)c2)cnc1N)c1c(Cl)ccc(F)c1Cl [Crizotinib] (partner 1 µM)
Method in brief: as §1

[8] = compound: C/C(=N\NC(=S)N1CCC1)/C2=CC=CC=N2 + C[C@]1(O)C[C@@H](c2nc(-c3ccc4ccc(-c5ccccc5)nc4c3)c3c(N)nccn32)C1 [Linsitinib] (partner 1 µM)
Method in brief: as §1

[9] = compound: C/C(=N\NC(=S)N1CCC1)/C2=CC=CC=N2 + Cc1nc(NC(=O)N2CCC[C@H]2C(N)=O)sc1-c1ccnc(C(C)(C)C(F)(F)F)c1 [Alpelisib] (partner 2 µM)
Method in brief: as §1

[10] = compound: C/C(=N\NC(=S)N1CCC1)/C2=CC=CC=N2 + O=C(c1cc(Cc2n[nH]c(=O)c3ccccc23)ccc1F)N1CCN(C(=O)C2CC2)CC1 [Olaparib] (partner 8 µM)
Method in brief: as §1

[11] = compound: C/C(=N\NC(=S)N1CCC1)/C2=CC=CC=N2 + CCNC(=O)c1noc(-c2cc(C(C)C)c(O)cc2O)c1-c1ccc(CN2CCOCC2)cc1 [Luminespib] (partner 0.01 µM)
Method in brief: as §1

[12] = compound: C/C(=N\NC(=S)N1CCC1)/C2=CC=CC=N2 + COc1cccc2cc(-c3nc([C@H]4CC[C@H](C(=O)O)CC4)n4ncnc(N)c34)[nH]c12 [OSI-027] (partner 0.5 µM)
Method in brief: as §1

[13] = compound: C/C(=N\NC(=S)N1CCC1)/C2=CC=CC=N2 + Cc1cc(Nc2cc(N3CCN(C)CC3)nc(Sc3ccc(NC(=O)C4CC4)cc3)n2)n[nH]1 [Tozasertib] (partner 0.1 µM)
Method in brief: as §1

[14] = compound: C/C(=N\NC(=S)N1CCC1)/C2=CC=CC=N2 + Cc1nc(Nc2ncc(C(=O)Nc3c(C)cccc3Cl)s2)cc(N2CCN(CCO)CC2)n1 [Dasatinib] (partner 0.075 µM)
Method in brief: as §1

[15] = compound: C/C(=N\NC(=S)N1CCC1)/C2=CC=CC=N2 + N=C(N)NC(=N)NCCc1ccccc1 [Phenformin] (partner 250 µM)
Method in brief: as §1

## Calu-6
[1]; 0.05 µM
  relative viability: 0.118
[1]; 0.1581 µM
  relative viability: 0.147
[1]; 0.5 µM
  relative viability: 0.154
[1]; 1.581 µM
  relative viability: 0.12
[1]; 5 µM
  relative viability: 0.14
[2]; first compound 0.05 µM
  relative viability: 0.165
[2]; first compound 0.1581 µM
  relative viability: 0.182
[2]; first compound 0.5 µM
  relative viability: 0.188
[2]; first compound 1.581 µM
  relative viability: 0.171
[2]; first compound 5 µM
  relative viability: 0.175
[3]; first compound 0.05 µM
  relative viability: 0.106
[3]; first compound 0.1581 µM
  relative viability: 0.122
[3]; first compound 0.5 µM
  relative viability: 0.123
[3]; first compound 1.581 µM
  relative viability: 0.141
[3]; first compound 5 µM
  relative viability: 0.126
[4]; first compound 0.05 µM
  relative viability: 0.0699
[4]; first compound 0.1581 µM
  relative viability: 0.0625
[4]; first compound 0.5 µM
  relative viability: 0.0749
[4]; first compound 1.581 µM
  relative viability: 0.0997
[4]; first compound 5 µM
  relative viability: 0.0865
[5]; first compound 0.05 µM
  relative viability: 0.132
[5]; first compound 0.1581 µM
  relative viability: 0.146
[5]; first compound 0.5 µM
  relative viability: 0.124
[5]; first compound 1.581 µM
  relative viability: 0.128
[5]; first compound 5 µM
  relative viability: 0.131
[6]; first compound 0.05 µM
  relative viability: 0.109
[6]; first compound 0.1581 µM
  relative viability: 0.139
[6]; first compound 0.5 µM
  relative viability: 0.152
[6]; first compound 1.581 µM
  relative viability: 0.141
[6]; first compound 5 µM
  relative viability: 0.132
[7]; first compound 0.05 µM
  relative viability: 0.117
[7]; first compound 0.1581 µM
  relative viability: 0.136
[7]; first compound 0.5 µM
  relative viability: 0.128
[7]; first compound 1.581 µM
  relative viability: 0.109
[7]; first compound 5 µM
  relative viability: 0.102
[8]; first compound 0.05 µM
  relative viability: 0.11
[8]; first compound 0.1581 µM
  relative viability: 0.1
[8]; first compound 0.5 µM
  relative viability: 0.127
[8]; first compound 1.581 µM
  relative viability: 0.115
[8]; first compound 5 µM
  relative viability: 0.108
[9]; first compound 0.05 µM
  relative viability: 0.141
[9]; first compound 0.1581 µM
  relative viability: 0.151
[9]; first compound 0.5 µM
  relative viability: 0.148
[9]; first compound 1.581 µM
  relative viability: 0.151
[9]; first compound 5 µM
  relative viability: 0.124
[10]; first compound 0.05 µM
  relative viability: 0.101
[10]; first compound 0.1581 µM
  relative viability: 0.133
[10]; first compound 0.5 µM
  relative viability: 0.141
[10]; first compound 1.581 µM
  relative viability: 0.118
[10]; first compound 5 µM
  relative viability: 0.122

## NCI-H1623
[1]; 0.05 µM
  relative viability: 0.395
[1]; 0.1581 µM
  relative viability: 0.415
[1]; 0.5 µM
  relative viability: 0.403
[1]; 1.581 µM
  relative viability: 0.357
[1]; 5 µM
  relative viability: 0.32
[11]; first compound 0.05 µM
  relative viability: 0.241
[11]; first compound 0.1581 µM
  relative viability: 0.295
[11]; first compound 0.5 µM
  relative viability: 0.303
[11]; first compound 1.581 µM
  relative viability: 0.231
[11]; first compound 5 µM
  relative viability: 0.322
[4]; first compound 0.05 µM
  relative viability: 0.39
[4]; first compound 0.1581 µM
  relative viability: 0.372
[4]; first compound 0.5 µM
  relative viability: 0.414
[4]; first compound 1.581 µM
  relative viability: 0.347
[4]; first compound 5 µM
  relative viability: 0.622
[12]; first compound 0.05 µM
  relative viability: 0.336
[12]; first compound 0.1581 µM
  relative viability: 0.367
[12]; first compound 0.5 µM
  relative viability: 0.332
[12]; first compound 1.581 µM
  relative viability: 0.268
[12]; first compound 5 µM
  relative viability: 0.293
[13]; first compound 0.05 µM
  relative viability: 0.32
[13]; first compound 0.1581 µM
  relative viability: 0.329
[13]; first compound 0.5 µM
  relative viability: 0.323
[13]; first compound 1.581 µM
  relative viability: 0.269
[13]; first compound 5 µM
  relative viability: 0.266
[14]; first compound 0.05 µM
  relative viability: 0.32
[14]; first compound 0.1581 µM
  relative viability: 0.364
[14]; first compound 0.5 µM
  relative viability: 0.293
[14]; first compound 1.581 µM
  relative viability: 0.276
[14]; first compound 5 µM
  relative viability: 0.528
[15]; first compound 0.05 µM
  relative viability: 0.366
[15]; first compound 0.1581 µM
  relative viability: 0.337
[15]; first compound 0.5 µM
  relative viability: 0.424
[15]; first compound 1.581 µM
  relative viability: 0.349
[15]; first compound 5 µM
  relative viability: 0.636
